The results in this text go back to patent US11414384B2, “P300/CBP hat inhibitors” (Constellation Pharmaceuticals, Inc., priority 2018, dated 2022).

p300 HAT domain (residues 1287-1666), sequence (Q09472 1287-1666): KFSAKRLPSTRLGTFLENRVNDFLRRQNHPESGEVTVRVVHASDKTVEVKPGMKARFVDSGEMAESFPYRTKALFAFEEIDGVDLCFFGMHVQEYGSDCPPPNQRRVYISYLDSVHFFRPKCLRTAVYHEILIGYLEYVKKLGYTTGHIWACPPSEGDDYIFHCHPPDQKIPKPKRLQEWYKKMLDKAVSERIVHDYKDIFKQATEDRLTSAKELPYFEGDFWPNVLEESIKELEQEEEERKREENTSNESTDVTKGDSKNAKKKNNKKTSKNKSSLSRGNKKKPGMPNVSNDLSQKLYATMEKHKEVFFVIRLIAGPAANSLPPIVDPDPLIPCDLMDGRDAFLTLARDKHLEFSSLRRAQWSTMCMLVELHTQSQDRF

For the first experiment, the target named is p300 HAT domain (residues 1287-1666) (Homo sapiens (Human), UniProt Q09472). Description: p300 HAT SPA assay (scintillation proximity assay, acetylation of biotinylated H3(1-21) peptide). In kind it is biochemical. Conditions: P300 HAT SPA IC50, p300 HAT domain; average of at least 2 replicate titrations. The method, then:
In a typical experiment the p300 HAT inhibitory activity of the compounds described herein was determined in accordance with the following experimental method.
The expressed protein was purified by Ni2+ affinity, followed by anion exchange chromatography. Appropriate fractions were pooled and buffer exchanged into 20 mM Hepes pH 7.5, 150 mM NaCl, and 1 mM TCEP.
35 μL of the reaction volume was transferred to a 384-well streptavidin FlashPlate (PerkinElmer) using a Bravo liquid handler (Velocity 11) and incubated for 1.5 hr at RT. […] Data were analyzed in Genedata to determine inhibitor IC50 values.
A word on the IC50: it is the midpoint of a concentration-inhibition curve. `CCn1cc(C(=O)C(NCCc2ccc(Cl)cc2)c2ccccc2)c2ccccc21` (single isomer, unassigned) [129 Isomer 2] came in with an IC50 of 1810 nM.

Staying with this experiment, now noted: p300 HAT domain; average of at least 2 replicate titrations; read-out: P300 HAT SPA IC50.
Take `CC(Cc1ccc(C(N)=O)cc1)NC(C(=O)c1c[nH]c2ccccc12)c1ccccc1` (single isomer, unassigned) [140 Isomer 1]: the IC50 was greater than 5000 nM.
With `CN(C)C(=O)c1ccc(CCNC(C(=O)c2c[nH]c3ccccc23)c2ccccc2)cc1` (single isomer, unassigned) [135 Isomer 1], the IC50 was greater than 60000 nM.
Same read-out and setting: the value for `N#Cc1ccc(CCNC(C(=O)c2c[nH]c3cc(C(=O)NCCN4CCCC4)ccc23)c2ccccc2)cc1` (single isomer, unassigned) [176 Isomer 2] was 1110 nM; that for `CN(C)C(=O)Cc1ccc(CCNC(C(=O)c2c[nH]c3ccccc23)c2ccccc2)cc1` (single isomer, unassigned) [137 Isomer 2] was greater than 60000 nM; that for `Cn1cc(-c2ccc3c(C(=O)C(NCCc4ccc(S(N)(=O)=O)cc4)c4ccccc4)cnn3c2)cn1` (single isomer, unassigned) [101 Isomer 1] was 166 nM.
`N#Cc1ccc(CCNC(C(=O)c2c[nH]c3cc(C(=O)NCCN4CCCC4)ccc23)c2ccccc2)cc1` (single isomer, unassigned) [176 Isomer 1]: the 50% inhibitory concentration (IC50) stood at 53.8 nM.
`NC(=O)c1ccc(CCNC(C(=O)c2c[nH]c3ccccc23)c2ccccc2)cc1` (single isomer, unassigned) [133 Isomer 1]: the concentration for half-maximal inhibition (IC50) was 22900 nM.
As to `COc1ccc(CCN[C@H](C(=O)c2c[nH]c3c(C(C)C)cccc23)c2ccccc2)cc1` (single isomer, unassigned) [145 Isomer 2], the IC50 is greater than 60000 nM.
In the case of `CCNc1ccc(CCNC(C(=O)c2c[nH]c3ccccc23)c2ccccc2)cn1` (single isomer, unassigned) [53 Isomer 1], the half-inhibitory concentration (IC50) is greater than 30000 nM.
Same read-out and setting: the figure for `O=C(c1c[nH]c2cc(OCc3ccccc3)ccc12)C(NCCc1ccc(F)cc1)c1ccccc1` (single isomer, unassigned) [61 Isomer 1] is greater than 30000 nM; for `CC(C)NC(=O)c1ccc2c(C(=O)C(NCCc3ccc(C#N)cc3)c3ccccc3)c[nH]c2c1` (single isomer, unassigned) [167 Isomer 2] it is 746 nM; for `CCNC(=O)c1ccc2c(C(=O)C(NCC(C)c3ccc(C#N)cc3)c3ccccc3)c[nH]c2c1` (single isomer, unassigned) [75 Isomer 2] it is 343 nM.
For the compound `N#Cc1ccc(CCNC(C(=O)c2cnn3cc(-c4cn[nH]c4)ccc23)c2ccccc2)cc1` (single isomer, unassigned) [99 Isomer 1], the 50% inhibitory concentration (IC50) came to 212 nM.
As for `Cc1ccc2c(C(=O)C(NCCc3ccc(S(N)(=O)=O)cc3)c3ccccc3)c[nH]c2c1` (single isomer, unassigned) [56 Isomer 1], the IC50 was greater than 60000 nM.
Same read-out and setting: the value for `Cn1cc(-c2ccc3c(C(=O)C(NCCc4ccc(F)cc4F)c4ccccc4)c[nH]c3c2)cn1` (single isomer, unassigned) [85 Isomer 1] was greater than 30000 nM; that for `CNC(=O)c1ccc2c(C(=O)C(NCCc3ccc(C#N)cc3)c3ccccc3)c[nH]c2n1` (single isomer, unassigned) [67 Isomer 2] was greater than 5000 nM; that for `COc1ccc(CCNC(C(=O)c2c[nH]c3c(Cl)cccc23)c2ccccc2)cc1` (single isomer, unassigned) [28 Isomer 2] was 1370 nM.
`COc1ccccc1CCNC(C(=O)c1c[nH]c2ccccc12)c1ccccc1` (single isomer, unassigned) [6 Isomer 1]: the concentration for half-maximal inhibition (IC50) was greater than 60000 nM.
Still for that read-out and setting: the figure for `CN1CCN(c2ccc3c(C(=O)C(NCCc4ccc(C#N)cc4)c4ccccc4)c[nH]c3n2)CC1` (single isomer, unassigned) [121 Isomer 1] is 2200 nM.
Regarding `O=C(c1c[nH]c2ccccc12)C(NCCc1ccccc1Cl)c1ccccc1` (single isomer, unassigned) [3 Isomer 2], the IC50 came to 6390 nM.
Same read-out and setting: the value for `NC(=O)c1ccc(CCNC(C(=O)c2c[nH]c3cc(-c4cnn(CCO)c4)ccc23)c2ccccc2)cc1` (single isomer, unassigned) [182 Isomer 2] was 514 nM; that for `CN1CCN(c2ccc3c(C(=O)C(NCCc4ccc(F)cc4)c4ccccc4)c[nH]c3c2)CC1` (single isomer, unassigned) [123 Isomer 1] was 7610 nM.
On to `CCNC(=O)c1ccc2c(C(=O)C(NCC(C)c3ccc(C#N)cc3)c3ccccc3)cnn2c1` (single isomer, unassigned) [69 Isomer 2], for which the 50% inhibitory concentration (IC50) was 2870 nM.
On to `CN1CCC(c2ccc3c(C(=O)C(NCCc4ccc(C#N)cc4)c4ccccc4)c[nH]c3c2)CC1` (single isomer, unassigned) [64 Isomer 1], for which the IC50 was found to be 97 nM.
Same read-out and setting: the value for `Cc1nc(C(=O)C(NCCc2ccc(C(N)=O)cc2)c2ccccc2)c2ccc(-c3cnn(C)c3)cn12` (single isomer, unassigned) [184 Isomer 1] was 672 nM.
Turning to `O=C(c1c[nH]c2ccccc12)C(NCCn1cnc2ccccc21)c1ccccc1` (single isomer, unassigned) [37 Isomer 2], the IC50 is greater than 60000 nM.
As for `CCNC(=O)c1ccc2c(C(=O)C(NCC(C)c3ccc(C#N)cc3)c3ccccc3)cnn2c1` (single isomer, unassigned) [69 Isomer 1], the IC50 was 188 nM.
`CNC(=O)c1ccc2c(C(=O)C(NCCc3ccc(Cl)cc3Cl)c3ccccc3)c[nH]c2c1` (single isomer, unassigned) [151 Isomer 1]: the IC50 was found to be 11500 nM.
On the same count and under the same terms, the value for `Cn1cc(-c2ccc3c(C(=O)C(NCCc4ccc(C(N)=O)cc4)c4ccccc4)cnn3c2)cn1` (single isomer, unassigned) [179 Isomer 2] was 248 nM.
Consider `CN(C)c1ccc(CCNC(C(=O)c2c[nH]c3ccccc23)c2ccccc2)cc1` (single isomer, unassigned) [39 Isomer 1], for which the IC50 was greater than 60000 nM.
Still for that read-out and setting: the figure for `Cc1cnc(-c2ccc3c(C(=O)C(NCCc4ccc(Cl)cc4)c4ccccc4)c[nH]c3c2)[nH]1` (single isomer, unassigned) [109 Isomer 1] is 2660 nM.
As to `O=C(c1c[nH]c2ccccc12)C(NCCc1ccc(Cl)c(Cl)c1)c1ccccc1` (single isomer, unassigned) [20 Isomer 1], the IC50 is greater than 60000 nM.
Same read-out and setting: the figure for `COCCNC(=O)c1cccc2c(C(=O)C(NCCc3ccc(Cl)cc3Cl)c3ccccc3)c[nH]c12` (single isomer, unassigned) [150 Isomer 2] is greater than 30000 nM.
Take `CC(Cc1ccc(C(N)=O)cc1)NC(C(=O)c1c[nH]c2ccccc12)c1ccccc1` (single isomer, unassigned) [140 Isomer 2]: the IC50 was 1540 nM.
Same read-out and setting: the figure for `Cc1ccc2c(C(=O)C(NCCc3ccc(F)cc3)c3ccccc3)c[nH]c2c1` (single isomer, unassigned) [48 Isomer 1] is greater than 60000 nM; for `CN(C)CCNC(=O)c1cccc2c(C(=O)C(NCCc3ccc(Cl)cc3Cl)c3ccccc3)c[nH]c12` (single isomer, unassigned) [149 Isomer 2] it is 11600 nM; for `O=C(c1c[nH]c2ccccc12)C(NCCc1ccc(Cl)cc1Cl)c1ccccc1` (single isomer, unassigned) [19 Isomer 1] it is greater than 60000 nM.
Same read-out and setting: the figure for `CNC(=O)c1cccc2c(C(=O)C(NCCc3ccc(Cl)cc3Cl)c3ccccc3)c[nH]c12` (single isomer, unassigned) [147 Isomer 1] is greater than 30000 nM.
For the compound `CCNC(=O)c1ccc2c(C(=O)C(NCCc3ccc(C#N)cc3)c3ccccc3)cnn2c1` (single isomer, unassigned) [73 Isomer 2], the 50% inhibitory concentration (IC50) amounted to 954 nM.
Same read-out and setting: the value for `O=C(O)c1ccc(CCNC(C(=O)c2c[nH]c3ccccc23)c2ccccc2)cc1` (single isomer, unassigned) [132 Isomer 2] was 17900 nM; that for `Cn1cc(-c2ccc3c(C(=O)C(NCCc4ccc(S(N)(=O)=O)cc4)c4ccccc4)c[nH]c3c2)cn1` (single isomer, unassigned) [66 Isomer 1] was 960 nM; that for `NC(=O)c1ccc(CCNC(C(=O)c2c[nH]c3cc(-c4cnn(CCO)c4)ccc23)c2ccccc2)cc1` (single isomer, unassigned) [182 Isomer 1] was greater than 5000 nM.
Same read-out and setting: the value for `Cn1cc(CCNC(C(=O)c2c[nH]c3ccccc23)c2ccccc2)cn1` (single isomer, unassigned) [35 Isomer 2] was 43500 nM.
On the same count and under the same terms, the figure for `O=C(c1c[nH]c2cc(-c3ccncn3)ccc12)C(NCCc1ccc(Cl)cc1)c1ccccc1` (single isomer, unassigned) [111 Isomer 1] is 1150 nM.
On to `CC(Cc1ccc(Cl)cc1)NC(C(=O)c1c[nH]c2ccccc12)c1ccccc1` (single isomer, unassigned) [27 Isomer 4], for which the 50% inhibitory concentration (IC50) is greater than 60000 nM.
For `Cc1ccc(CCNC(C(=O)c2c[nH]c3ccccc23)c2ccccc2)cc1` (single isomer, unassigned) [38 Isomer 1], the IC50 stood at 19000 nM.
Same read-out and setting: the value for `O=C(c1c[nH]c2ccccc12)C(NCCc1ccc(C(F)(F)F)cc1)c1ccccc1` (single isomer, unassigned) [21 Isomer 2] was 32800 nM; that for `C[C@@H](O)CNC(=O)c1ccc2c(C(=O)C(NCCc3ccc(C#N)cc3)c3ccccc3)c[nH]c2c1` (single isomer, unassigned) [173 Isomer 1] was 1700 nM; that for `CN1CCN(c2ccc3c(C(=O)C(NCCc4ccc(C#N)cc4)c4ccccc4)c[nH]c3c2)CC1` (single isomer, unassigned) [122 Isomer 1] was 325 nM.
Same read-out and setting: the value for `O=C(c1c[nH]c2cc(-c3ccccn3)ccc12)C(NCCc1ccc(F)cc1)c1ccccc1` (single isomer, unassigned) [105 Isomer 1] was greater than 30000 nM; that for `CN1CCN(c2ccc3c(C(=O)C(NCCc4ccc(S(N)(=O)=O)cc4)c4ccccc4)c[nH]c3c2)CC1` (single isomer, unassigned) [124 Isomer 1] was greater than 5000 nM.
